Legend:
Assay in all cases: combination Emax (second highest fraction inhibited in the dose matrix, 72 h); higher = more inhibition; extreme values may be limits of the assay
[1] = test system: MOLT-4 (T-Lymphoblastic Leukemia)
Outline: (§1)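 Cell lines grown in DMEM/F12 or RPMI with 10% FBS were plated in 1536-well plates and held 24 hours at 37°C, 5% CO2 before 72 hours of exposure to two-drug dose matrices, with DMSO typically at 0.2%. CellTiter-Glo 2.0 luminescence gave viability, which was converted to inhibition. Vehicle wells were set to 0 and blank wells to 1. Combination Emax is the second-highest inhibition in the matrix, and Bliss excess is the observed combination effect minus the expected EA + EB − EA·EB, where EA and EB are the single-agent effects.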

[2] = test system: NCI-H1092 (Small Cell Lung Carcinoma)
Outline: as §1

[3] = test system: ME-180 (Cervical Carcinoma)
Outline: as §1

[4] = test system: A4-Fuk (B-Lymphoblastic Leukemia)
Outline: as §1

[5] = test system: EJM (Plasma Cell Myeloma)
Outline: as §1

[6] = test system: SK-LU-1 (Lung Adenocarcinoma)
Outline: as §1

[7] = test system: OACM5-1 (Esophageal Adenocarcinoma)
Outline: as §1

[8] = test system: OE33 (Esophageal Adenocarcinoma)
Outline: as §1

[9] = test system: KGN (Other Solid Carcinomas)
Outline: as §1

[10] = test system: Ca-Ski (Cervical Carcinoma)
Outline: as §1

[11] = test system: MDA-MB-453 (Breast Carcinoma)
Outline: as §1

[12] = test system: NCI-H522 (Lung Adenocarcinoma)
Outline: as §1

[13] = test system: ALL-SIL (T-Lymphoblastic Leukemia)
Outline: as §1

[14] = test system: HCC1500 (Breast Carcinoma)
Outline: as §1

[15] = test system: ML-2 (Acute Myeloid Leukemia)
Outline: as §1

COLO-679 (Melanoma) = test system: COLO-679 (Melanoma)
Outline: as §1

Hey (Ovarian Carcinoma) = test system: Hey (Ovarian Carcinoma)
Outline: as §1

[16] = test system: KOPN-8 (B-Lymphoblastic Leukemia)
Outline: as §1

[17] = test system: NCI-H1993 (Lung Adenocarcinoma)
Outline: as §1

[18] = test system: MV-4-11 (Acute Myeloid Leukemia)
Outline: as §1

Compound | combination Emax [1] | combination Emax [2] | combination Emax [3] | combination Emax [4] | combination Emax [5] | combination Emax [6] | combination Emax [7] | combination Emax [8] | combination Emax [9] | combination Emax [10] | combination Emax [11] | combination Emax [12] | combination Emax [13] | combination Emax [14] | combination Emax [15] | combination Emax (COLO-679 (Melanoma)) | combination Emax (Hey (Ovarian Carcinoma)) | combination Emax [16] | combination Emax [17] | combination Emax [18]
CN(C)CCCOc1ccc(-c2ccc3ncc4c(c3c2)n(C2CCOCC2)c(=O)n4C)cn1 [AZD0156] + CCN(CCO)CCCOc1ccc2c(Nc3cc(CC(=O)Nc4cccc(F)c4)[nH]n3)ncnc2c1 [AZD2811] (first compound max 1 µM, 7x7, partner max 1 µM) | 0.968 | 0.181 | 0.192 | 0.551 | 0.0982 | 0.143 | 0.232 | 0.068 | 0.551 | 0.274 | 0.144 | 0.0622 | 0.976 | 0.298 | 0.878 | 0.159 | 0.229 | 0.554 | 0.288 | 0.93
Cn1cnc2c(F)c(Nc3ccc(Br)cc3Cl)c(C(=O)NOCCO)cc21 [Selumetinib] + C[C@@H]1COCCN1C2=NC(=NC(=C2)C3(CC3)[S@](=N)(=O)C)C4=C5C=CNC5=NC=C4 [AZD6738] (first compound max 10 µM, 7x7, partner max 10 µM) | 0.991 | 0.111 | 0.465 | 0.836 | 0.855 | 0.376 | 0.612 | 0.775 | 0.808 | 0.638 | 0.684 | 0.0701 | 0.934 | 0.183 | 0.982 | 0.82 | 0.748 | 1 | 0.795 | 0.97
C=CCn1c(=O)c2cnc(Nc3ccc(N4CCN(C)CC4)cc3)nc2n1-c1cccc(C(C)(C)O)n1 [AZD1775] + C1CN(CCC1(C(=O)N[C@@H](CCO)C2=CC=C(C=C2)Cl)N)C3=NC=NC4=C3C=CN4 [Capivasertib] (first compound max 3 µM, partner max 3 µM) | 0.989 | 0.533 | 0.898 | 0.859 | 0.923 | 0.634 | 0.74 | 0.639 | 0.734 | 0.825 | 0.859 | 0.612 | 0.936 | 0.413 | 0.994 | 0.412 | 0.726 | 0.968 | 0.701 | –
CCN(CCO)CCCOc1ccc2c(Nc3cc(CC(=O)Nc4cccc(F)c4)[nH]n3)ncnc2c1 [AZD2811] + C=CCn1c(=O)c2cnc(Nc3ccc(N4CCN(C)CC4)cc3)nc2n1-c1cccc(C(C)(C)O)n1 [AZD1775] (first compound max 1 µM, partner max 1 µM) | 1 | 0.259 | 0.396 | 0.852 | 0.875 | 0.416 | 0.339 | 0.467 | 0.767 | 0.697 | 0.301 | 0.218 | 0.966 | 0.227 | 1 | 0.491 | 0.497 | 0.882 | 0.458 | 0.936
COc1nnc2ccc(N3CCC(c4ccc(OCCN5CCN(C)C(=O)[C@H]5C)cc4)CC3)nn12 [AZD5153] + Cn1cnc2c(F)c(Nc3ccc(Br)cc3Cl)c(C(=O)NOCCO)cc21 [Selumetinib] (first compound max 1 µM, 7x7, partner max 10 µM) | 0.162 | 0.192 | 0.592 | 0.934 | 0.619 | 0.46 | 0.663 | 0.414 | 0.729 | 0.813 | 0.614 | 0.469 | 0.778 | 0.387 | 1 | 0.884 | 0.726 | 1 | 0.915 | 1
CC(=O)c1c(C)c2cnc(Nc3ccc(N4CCNCC4)cn3)nc2n(C2CCCC2)c1=O [Palbociclib] + Cn1cnc2c(F)c(Nc3ccc(Br)cc3Cl)c(C(=O)NOCCO)cc21 [Selumetinib] (first compound max 10 µM, 7x7, partner max 10 µM) | 0.766 | 0.11 | 0.297 | 0.732 | 0.182 | 0.362 | 0.477 | 0.259 | 0.529 | 0.301 | 0.241 | 0.127 | 0.38 | 0.193 | 0.869 | 0.75 | 0.623 | 0.801 | 0.69 | 0.955

Source: the supplement of paper PMC11061612
